Consider eleven molecules from patent publication US6225494A, “Trisubstituted phenyl derivatives having retinoid agonist or inverse agonist type biological activity” (Allergan Sales, Inc., priority 1999, dated 2001).

What all share (experiment): RAR-P-GR holoreceptor transactivation assay (PGR assay)
Holding throughout (assay type): cell-based

One test deals with T1, RARα (Homo sapiens, UniProt P10276, E106G/G107S/G110V).
T1 construct: expressed in transfected cells; host or cells: CV-1
T1 sequence (P10276 1-462 E106G/G107S/G110V): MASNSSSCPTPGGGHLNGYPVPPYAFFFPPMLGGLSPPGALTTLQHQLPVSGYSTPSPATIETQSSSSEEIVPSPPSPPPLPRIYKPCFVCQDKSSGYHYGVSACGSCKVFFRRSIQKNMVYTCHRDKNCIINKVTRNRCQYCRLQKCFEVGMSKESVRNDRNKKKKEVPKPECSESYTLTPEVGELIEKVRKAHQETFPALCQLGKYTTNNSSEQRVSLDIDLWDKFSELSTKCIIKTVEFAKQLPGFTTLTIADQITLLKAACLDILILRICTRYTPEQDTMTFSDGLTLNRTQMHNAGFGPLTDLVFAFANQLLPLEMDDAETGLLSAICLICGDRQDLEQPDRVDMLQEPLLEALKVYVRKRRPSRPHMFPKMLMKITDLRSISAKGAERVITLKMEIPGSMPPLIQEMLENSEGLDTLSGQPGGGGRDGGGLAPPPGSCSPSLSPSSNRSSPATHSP
T1 sequence (P19793 1-462 partner): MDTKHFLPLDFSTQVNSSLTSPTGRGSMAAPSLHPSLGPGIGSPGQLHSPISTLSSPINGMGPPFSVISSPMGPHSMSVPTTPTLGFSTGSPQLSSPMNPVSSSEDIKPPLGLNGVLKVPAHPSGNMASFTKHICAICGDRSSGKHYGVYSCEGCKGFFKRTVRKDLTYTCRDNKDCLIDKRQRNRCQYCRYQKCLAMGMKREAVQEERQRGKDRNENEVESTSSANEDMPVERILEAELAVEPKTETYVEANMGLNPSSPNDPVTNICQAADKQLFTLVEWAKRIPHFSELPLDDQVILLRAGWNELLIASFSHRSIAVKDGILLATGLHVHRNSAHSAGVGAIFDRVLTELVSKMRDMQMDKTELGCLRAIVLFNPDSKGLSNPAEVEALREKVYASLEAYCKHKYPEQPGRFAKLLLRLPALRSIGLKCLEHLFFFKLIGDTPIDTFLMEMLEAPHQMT
The following applies: for EC50: CV-1 cells, luciferase reporter, 18 hours; for Emax: relative to all-trans-retinoic acid, read-out: % Efficiency RARα. The protocol: (§1) Still another transactivation assay, the "PGR assay" is described in the publication KIein et al. J. Biol. Chem. 271, 22692-22696 (1996) which is expressly incorporated herein by reference, and a detailed description is also provided below. The results of the PGR assay are also expressed in EC50 numbers (nanomolar concentration).
(§2) RAR-P-GR Holoreceptor Transactivation Assay
(§3) CV-1 cells (4×10^5 cells/well) were transiently transfected with the luciferase reporter plasmid MTV-4(R5G)-Luc (0.7 μg/well) containing four copies of the R5G retinoid DNA response element along with the RXRα expression plasmid pRS-hRXRα (0.1 μg/well) and one of the RAR-P-GR expression plasmids (0.05 μg/well) in 12 well plates via calcium phosphate precipitation Chen et al. (1987) Mol. Cell. Biol. 7, 2745-2752, as described by Vein et al. in J. Biol. Chem. 271, 22692, referenced above. The three different RAR-P-GR expression plasmids, pRS-RARα-P-GR, pcDNA3-RARβ-P-GR and pcDNA3-RARγ-P-GR, express RARα, RARβ and RARγ receptors, respectively, which contain modified DNA binding domains such that their "P-boxes" have been altered to that of the glucocorticoid receptor. These RAR-P-GR receptors bind to DNA as heterodimeric complexes with RXR. Specifically, the RAR-P-GR receptors bind retinoic acid response elements designated R5G, comprised of two RAR half sites (nucleotide sequence 5'-GGTTCA-3') separated by 5 base pairs in which the 3'-half site has been modified to that of a glucocorticoid receptor half site, 5'-AGAACA-3'. To allow for various in transfection efficiency a β-galactosidase expression plasmid (0.01 ug/well) was used as an internal control. Alternatively, the assay was performed in a 96-well microtiter plate format (5000 cells/well) in a manner which was identical to that described above except 1/5 of the amount of the DNA-calcium phosphate precipitant (20 μl instead of 100 μl) was applied to each well. Eighteen hours after introduction of the DNA precipitants, cells were rinsed with phosphate buffered saline (PBS) and fed with D-MEM (Gibco-BRL) containing 10% activated charcoal extracted fetal bovine serum (Gemini Bio-Products). After rinsing with PBS, cells were lysed and luciferase activity was measured as previously described in de Wet et al. (1987) Mol. Cell. Biol. 7, 725-737. Luciferase values represent the mean±SEM of triplicate determinations normalized to β-galactosidase activity.
On the technique in general: A reporter such as luciferase makes a cellular process visible.

The target in the next test is T2, RARβ (Homo sapiens, UniProt P10826, E106G/G107S/G110V).
T2 construct: expressed in transfected cells; host or cells: CV-1
T2 sequence (P10826 1-448 isoform P10826-2 E99G/G100S/G103V): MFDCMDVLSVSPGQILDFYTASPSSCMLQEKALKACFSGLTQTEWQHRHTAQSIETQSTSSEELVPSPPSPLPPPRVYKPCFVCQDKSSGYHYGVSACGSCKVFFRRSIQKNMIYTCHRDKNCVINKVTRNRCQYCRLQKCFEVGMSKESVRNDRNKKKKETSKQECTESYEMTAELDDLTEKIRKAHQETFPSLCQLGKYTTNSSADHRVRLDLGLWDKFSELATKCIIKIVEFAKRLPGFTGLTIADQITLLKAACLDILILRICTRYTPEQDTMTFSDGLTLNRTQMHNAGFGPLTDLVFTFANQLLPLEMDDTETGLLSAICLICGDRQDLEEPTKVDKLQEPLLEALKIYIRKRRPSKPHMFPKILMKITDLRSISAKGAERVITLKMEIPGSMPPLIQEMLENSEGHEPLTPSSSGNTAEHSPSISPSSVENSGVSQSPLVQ
T2 sequence (P19793 1-462 partner): T1 sequence (P19793 1-462 partner)
As to conditions: for EC50: CV-1 cells, luciferase reporter, 18 hours; for Emax: relative to all-trans-retinoic acid, read-out: % Efficiency RARβ. The protocol:
as §1, §2, §3

A further test addresses T3, RARγ (Homo sapiens, UniProt P13631, E108G/G109S/G112V).
T3 construct: expressed in transfected cells; host or cells: CV-1
T3 sequence (P13631 1-454 E108G/G109S/G112V): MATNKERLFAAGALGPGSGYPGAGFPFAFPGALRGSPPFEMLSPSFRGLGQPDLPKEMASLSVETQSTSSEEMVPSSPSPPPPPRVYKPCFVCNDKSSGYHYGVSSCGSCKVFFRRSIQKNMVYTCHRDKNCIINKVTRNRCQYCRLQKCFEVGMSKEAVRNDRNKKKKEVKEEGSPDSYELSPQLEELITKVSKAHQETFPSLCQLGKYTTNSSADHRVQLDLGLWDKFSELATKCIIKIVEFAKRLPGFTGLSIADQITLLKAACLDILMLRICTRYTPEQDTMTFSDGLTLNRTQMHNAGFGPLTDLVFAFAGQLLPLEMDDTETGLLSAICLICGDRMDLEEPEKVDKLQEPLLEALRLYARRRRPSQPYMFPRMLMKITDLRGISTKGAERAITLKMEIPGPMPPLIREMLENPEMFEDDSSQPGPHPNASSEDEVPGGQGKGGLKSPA
T3 sequence (P19793 1-462 partner): T1 sequence (P19793 1-462 partner)
The following applies: for EC50: CV-1 cells, luciferase reporter, 18 hours; for Emax: relative to all-trans-retinoic acid, read-out: % Efficiency RARγ. The protocol:
as §1, §2, §3

As usually defined, the EC50 is the midpoint of the concentration-response curve. The low end stands for an effect from little substance, the high end for a need for much substance.

For the molecule `Cc1ccc(C(=O)c2cc(C#Cc3ccc(C(=O)O)cc3)ccc2O)cc1` [Compound 5, 4-[[4'-hydroxy-3'-(4"-methyl)benzoyl]phenylethynyl]benzoic acid], the EC50 on RARα, on RARβ and on RARγ was above 10 µM in each case. Besides, the results for the Emax at RARα, on RARβ and at RARγ were 1%, 3% and 1%, respectively.
Turning to `C=C(c1ccc(C)cc1)c1cc(C#Cc2ccc(C(=O)O)cc2)ccc1O` [Compound 8, 4-[[4'-Hydroxy-3'-(1-p-tolyl)vinyl]phenylethynyl]benzoic acid], the 50% effective concentration (EC50) on RARα, on RARβ and on RARγ was above 10 µM throughout. Besides, the Emax worked out at 1% on RARα, 3% at RARβ and 3% on RARγ.
As for `C=C(c1ccc(C)cc1)c1cc(C#Cc2ccc(C(=O)O)cc2)ccc1OCOC` [Compound 9, 4-[[4'-methoxymethoxy-3'-(1-p-tolyl)vinyl]phenylethynyl]benzoic acid], the EC50 on RARα, on RARβ and on RARγ was above 10 µM throughout. Also, the Emax at RARα is 1%; on RARβ, 3%; at RARγ, 5%.
Turning to `C=C(c1ccc(C)cc1)c1cc(C#Cc2ccc(C(=O)O)cc2)ccc1OC` [Compound 12, 4-[[4'-Methoxy-3'-(1-p-tolyl)vinyl]phenylethynyl]benzoic acid], the EC50 at RARα, on RARβ and on RARγ was above 10 µM each time. Further, the Emax on RARα is 0%; on RARβ, 1%; on RARγ, 5%.
As to `COCOc1ccc(C#Cc2ccc(C(=O)O)cc2)cc1C(=O)c1ccc(C)cc1` [Compound 13], the EC50 on RARα, on RARβ and at RARγ was above 10 µM throughout. The Emax at RARα, at RARβ and on RARγ was 0% each time.
In the case of `C=C(c1ccc(C)cc1)c1cccc(C#Cc2ccc(C(=O)O)cc2)c1` [Compound 20, 4-[[3'-(1-p-Tolyl)vinyl]phenylethynyl]benzoic acid], the EC50 at RARα, on RARβ and on RARγ was above 10 µM each time. Further, the figures for the Emax at RARα, on RARβ and on RARγ were 9%, 5% and 1%, respectively.
Regarding `COc1ccc(C#Cc2ccc(C(=O)O)cc2)cc1C(=O)c1ccc(C)cc1` [Compound 22, 4-[[4'-methoxy-3'-(4"-methyl)benzoyl]phenylethynyl]benzoic acid], the EC50 on RARα, on RARβ and on RARγ was above 10 µM throughout. The Emax at RARα, at RARβ and on RARγ was 0% throughout.
`Cc1ccc(C(=O)c2cc(C#Cc3ccc(C(=O)O)c(F)c3)c(C)cc2O)cc1` [Compound 25, 4-[[4'-Hydroxy-2'-methyl-5'-(4"-methyl)benzoyl]phenylethynyl]-2-fluoro-benzoic acid]: the EC50 at RARα, at RARβ and at RARγ was above 10 µM in each case. The Emax is 0% at RARα, 2% on RARβ and 0% on RARγ.
Take `C=C(c1ccc(C)cc1)c1cc(C#Cc2ccc(C(=O)O)cc2)ccc1OC(C)C` [Compound 28, 4-[[4'-Isopropoxy-3'-(1-p-tolyl)vinyl]phenylethynyl]benzoic acid]: the EC50 at RARα, on RARβ and on RARγ was above 10 µM in each case. The Emax stood at 0% on RARα, 0% at RARβ and 1% on RARγ.
With `C=C(c1ccc(C)cc1)c1cc(C#Cc2ccc(C(=O)O)c(F)c2)ccc1OC(C)C` [Compound 29, 4-[[4'-Isopropoxy-3'-(1-p-tolyl)vinyl]phenylethynyl]-2-fluoro-benzoic acid], the EC50 on RARα, on RARβ and at RARγ was above 10 µM each time. In addition, the Emax is 0% on RARα, 0% on RARβ and 1% on RARγ.
On to `C=C(c1cccc(C)c1)c1cc(C#Cc2ccc(C(=O)O)cc2)ccc1OC(C)C` [Compound 31, 4-[[4'-Isopropoxy-3'-(1-m-tolyl)vinyl]phenylethynyl]benzoic acid], for which the EC50 on RARα, at RARβ and at RARγ was above 10 µM throughout. For the same molecule, the Emax on RARα came to 0%; at RARβ it was 4%; at RARγ, 2%.
